Assay results published in patent US20240084237A1, “A DEVICE HAVING A SUPPORT STRUCTURE FOR CREATING A HOLLOW, THREE-DIMENSIONAL ORGANOIDS AND CULTURES” (The Trustees of Indiana University, priority 2021, published 2024).

System: iMG incorporated into the hollow organoid culture
Assay: neural inflammation model: iMG incorporated into hollow (tubular) brain organoid culture, drug treatment
Assay type: cell-based, human
Details: for response of iMG incorporated into the hollow organoid culture to external stimulation: recapitulating the in vivo phenotype and functions during neural inflammation, LPS 100 ng/mL 24 hours followed by ATP 2 mM 30 minutes, DAMGO 100 nM 24 hours
Description: To differentiate WA01 cells into microglia, WA01 cells were plated onto Matrigel (Corning) coated 6-well plate at a density of 30-40 colonies per well. The WA01 cells were then differentiated into hematopoietic progenitor cells (HPC) using STEMdiff hematopoietic kit (Stemcell Technologies). The differentiated WA01 derived HPC was then further differentiated into induced microglia (iMG) cells using STEMdiff Microglia Differentiation kit (Stemcell Technologies).
To treat microglia cultured in well plates or microglia embedded in hFO, lipopolysaccharide (LPS) (Sigma) is dosed at 100 ng/mL for 24 hours followed by Adenosine 5′-triphosphate (ATP) (Sigma) at a concentration of 2 mM for 30 minutes. Similarly, DAMGO was given at a concentration of 100 nM for 24 hours. For LY-2828360 (Cayman Chemicals) treatment, microglia treated with DAMGO for 24 hours was refreshed with a medium containing 100 nM LY-2828360 for an additional 24 hours.
To visualize inflammasome activation inside microglia cells, we analyzed NLRP3/ASC colocalization by proximity ligation assay (PLA). Samples were subject to NLRP3/ASC staining following by colocalization PLA using the Duolink in situ red kit (Sigma). After the PLA labeling, samples were then additionally labeled by Iba1/MAP2 before coverslipped with Prolong gold anti-fade DAPI mounting medium (Thermo Fisher) and visualized under an inverted fluorescence microscope (Olympus IX-83).
Conditioned medium of 24 hours (total volume 500 μL) from control conditions or drug-treated conditions were collected from microglia cultured in 24 well plates or incorporated inside tubular organoids. The medium was centrifuged at 2,000 g for 10 minutes to remove cell debris. 400 μL of supernatant was then aspirated and used for ELISA assays. Samples were assayed using ELISA plates for IL-1β (Tribioscience), IL-18 (Tribioscience), and TNF-α (Abcam). Each sample was tested in triplicates and read at 450 nm for absorbance.

C[C@@H](NC(=O)[C@@H](N)Cc1ccc(O)cc1)C(=O)NCC(=O)N(C)[C@@H](Cc1ccccc1)C(=O)NCCO [DAMGO]
response of iMG incorporated into the hollow organoid culture to external stimulation: can respond

lipopolysaccharide [LPS]
response of iMG incorporated into the hollow organoid culture to external stimulation: can respond

Cc1nc(N2CCN(C)CC2)c2nc(-c3ccccc3Cl)n(C3CCOCC3)c2n1 [LY282860]
response of the neural inflammation model to treatment (therapeutics screening) (100 nM for additional 24 hours after DAMGO 24 hours): evident responses
